# Several values for one entry are separate records, joined by “and”; a condition that tells them apart may be missing. Equal entries are not always repeated. Entries after “also recorded” stand apart in the source; their conditions may differ.
# Experiments:
# Assay type in all cases: in vivo, mouse
# CFTR−/− mice [1] = experiment: Fatty acid levels (GC/MS) in pancreas and lung cells of CFTR−/− mice fed n-3 fatty acids; settings: for DHA level in pancreas: CFTR-/- mice, mean ± S.D.; for DHA level in pancreas / Change in phospholipid/membrane-bound AA (in words) / Change in phospholipid/membrane-bound DHA (in words): 40 mg/day for one week (fish oil: dose equivalent to 40 mg DHA, 60 mg EPA, 15 mg LNA); for Change in phospholipid/membrane-bound AA (in words) / Change in phospholipid/membrane-bound DHA (in words): vs Peptamen alone
# Method: (§1) Mouse pancreatic acinar and lung cell suspensions were prepared from wild type (n=3) and CFTR−/− mice (n=3) by enzymatic and mechanical dissociation. In addition, brain, kidney, heart, spleen, and blood were sonicated in 0.3M sucrose buffer. Membrane lipids were extracted from cell and organ preparations with 20 volumes of chloroform-methanol 2:1 (v/v), transmethylated with 0.5 mL of 0.1 N methanolic-NaOH/BF3 reagent, and the resulting fatty acid methyl esters analyzed by gas chromatography/mass spectrometry (GC/MS). In a different set of experiments, lipids were fractionated by aminopropyl column chromatography into triglycerides, cholesterol esters, and phosphoglycerides and the fatty acid composition of each lipid class determined by a combination of enzymatic hydrolysis, transmethylation, and GC/MS.
# Cystic fibrosis (UNC strain) and wild type mice (12-20 grams body weight) were fed with a complete liquid enteral formulation (Peptamen™, Nestle Clinical Nutrition, Inc.) supplemented with different quantities of the DHA-containing formulation Neuromins (Nature's Way Products Inc., Springville, Utah). DHA content in the Neuromins formulation was 100 mg per 500 mg of formulation. Mice were fed once a day at about 11 a.m., seven days a week with 20 ml of Peptamen™ supplemented with the various amounts of either Neuramins, free DHA (Sigma Chemical Co., MO) or DHA-ethyl ester (Nu-Check-Prep, Inc. MN) ranging from 0.5 mg/day of DHA to 40 mg/day of DHA.
# Lung and acinar cells were isolated from a CF mouse fed with DHA formula (mouse-1, 40 mg/day DHA). The pellets (0.5 mL for pancreas cell homogenate and 0.6 mL for lung cell homogenate) were extracted with 3 mL of chloroform-methanol 2:1 (v/v). The resulting emulsion was vortexed, centrifuged at 800 g for 3 min., and the lower phase aspirated. The residual upper phase was partitioned again with 3 mL of chloroform-methanol 2:1 (v/v), the lower phase aspirated and both lower phases combined. Fractions were evaporated to dryness, processed for fatty acid methyl esters (FAME) and were analyzed by GC-MS analysis. Aliquots of 10 μL of 17:0 methyl ester solution in hexane [1 μg/μL] were added to the samples after methylation.
# (§2) Lung and acinar cells were isolated from a CF and a wild-type (WT) mouse fed with DHA formula. The pellets (0.5 mL for pancreas cell homogenate and 0.6 mL for lung cell homogenate) were extracted with 3 mL of chloroform-methanol 2:1 (v/v). The resulting emulsion was vortexed, centrifuged at 800 g for 3 min., and the lower phase aspirated. The residual upper phase was partitioned again with 3 mL of chloroform-methanol 2:1 (v/v), the lower phase aspirated and both lower phases combined. Fractions were evaporated to dryness, processed for FAME and analyzed by GC-MS. Aliquots of 20 μL of 17:0 in chloroform-methanol 2:1 (v/v) were added to the samples before methylation.
# as §2, with “from” for “from a”, “mice” for “and a wild-type (WT) mouse”, “different doses of DHA, i.e., 0.5 mg/day, 2.0 mg/day, 10 mg/day or 40 mg/day DHA.” for “DHA formula.”, “pellets” for “pellets (0.5 mL for pancreas cell homogenate and 0.6 mL for lung cell homogenate)”, “30” for “20”
# CFTR−/− mice were prepared as described in Example 1. Both CFTR−/− mice and wild type mice were euthanized with carbon dioxide, and cell suspensions from pancreas and lung isolated.
# wild-type mice = experiment: Fatty acid levels (GC/MS) in pancreas and lung cells of wild-type mice fed n-3 fatty acids; settings: for Change in phospholipid/membrane-bound AA (in words) / Change in phospholipid/membrane-bound DHA (in words): 40 mg/day for one week
# Method: as §1
# Cystic fibrosis (UNC strain) and wild type mice (12-20 grams body weight) were fed with a complete liquid enteral formulation (Peptamen™, Nestle Clinical Nutrition, […], Springville, Utah). DHA content in the Neuromins formulation was 100 mg per 500 mg of formulation. […]
# as §2, with “Lung and acinar cells were isolated from a CF and a wild-type (WT) mouse fed with DHA formula.” left out
# CFTR−/− mice were prepared as described in Example 1. Both CFTR−/− mice and wild type mice were euthanized with carbon dioxide, and cell suspensions from pancreas and lung isolated. Pancreatic acini were prepared by collagenase and mechanical dissociation (Bruzzone et al., (1985) Biochem. J. 226:621-624). A total lung cell suspension was prepared by first flushing contaminating blood by repeated injection of lung with Krebs Henseleit buffer (KHB). Tissue was then extensively minced and incubated for 30 minutes at 37° C. in 10 ml of KHB containing 1,000 units of collagenase (Worthington Biochemical, PA) 2,000 units of DNase, and 0.5 units of thermolysin (Sigma Chemical Co., St. Louis, Mo.). The resulting cell suspension was sedimented once through KHB containing 5% BSA and subsequently washed once in KHB, pH 7.4 containing 32 mM bicarbonate, 10 mM Hepes, and 0.5% BSA. Brain, kidney, and heart were removed and sonicated in 0.5 mL and 0.3M sucrose. A similar approach was used for duodenum and ileum except that mucosal scrapings were used for sonication.
# Since the pancreas and the lung are the two primary organs affected in cystic fibrosis, AA and DHA levels in cell preparations of these organs and in wild-type and CFTR−/− mice were quantitated by GC/MS analysis. Lipids were extracted from cell suspensions, tissue homogenates, and blood plasma with 6 volumes of chloroform-methanol (2:1, v/v). The resulting emulsions were centrifuged at 600 g for 3 min and the lower phase containing the lipids was collected. This procedure was repeated twice and the lower phases from the two extractions combined. Aliquots of 30 μL of heptadecanoic acid (17:0) (1 mg/ml) were added to the extracts and used as an internal standard.
# CFTR−/− mice [2] = experiment: Fatty acid levels (GC/MS) in pancreas and lung cells of CFTR−/− mice fed n-3 fatty acids; settings: for AA level in pancreas: CFTR-/- mice, 40 mg/day for one week (fish oil: dose equivalent to 40 mg DHA, 60 mg EPA, 15 mg LNA), mean ± S.D.
# [3] = CF mice, 40 mg/day DHA (dose series, Table 5)
# [4] = CF mouse-1, 40 mg/day DHA, day 30 to day 37
# [5] = CF mouse-2, 40 mg/day DHA, day 24 to day 47
# [6] = WT mouse fed Peptamen supplemented with DHA
# [7] = CFTR (-/-) mice, 40 mg DPA per day for 7 days
# [8] = wild-type mice, 40 mg DPA per day for 7 days
# [9] = CFTR−/− mice, listed as 18:3n-3
# [10] = wild-type mice, listed as 18:3n-3
smiles,measurement,setting,value
"CC/C=C\C/C=C\C/C=C\C/C=C\C/C=C\C/C=C\CCC(=O)O [DHA, docosahexaenoic acid]",20:4n-6 in pancreas,"CFTR−/− mice [1]; CF mice, 0.5 mg/day DHA",315 nmoles per total extract
same,22:4n-6 in pancreas,"CFTR−/− mice [1]; CF mice, 0.5 mg/day DHA",8.3 nmoles per total extract
same,22:6n-3 in pancreas,"CFTR−/− mice [1]; CF mice, 0.5 mg/day DHA",39 nmoles per total extract
same,20:4n-6 in pancreas,"CFTR−/− mice [1]; CF mice, 2 mg/day DHA",233 nmoles per total extract
same,22:4n-6 in pancreas,"CFTR−/− mice [1]; CF mice, 2 mg/day DHA",7.2 nmoles per total extract
same,22:6n-3 in pancreas,"CFTR−/− mice [1]; CF mice, 2 mg/day DHA",43 nmoles per total extract
same,20:4n-6 in pancreas,"CFTR−/− mice [1]; CF mice, 10 mg/day DHA",177 nmoles per total extract
same,22:4n-6 in pancreas,"CFTR−/− mice [1]; CF mice, 10 mg/day DHA",3.7 nmoles per total extract
same,22:6n-3 in pancreas,"CFTR−/− mice [1]; CF mice, 10 mg/day DHA",67 nmoles per total extract
same,20:4n-6 in pancreas,CFTR−/− mice [1]; [3],67 nmoles per total extract
same,22:4n-6 in pancreas,CFTR−/− mice [1]; [3],0.4 nmoles per total extract
same,22:6n-3 in pancreas,CFTR−/− mice [1]; [3],148 nmoles per total extract
same,20:4n-6 in lung,CFTR−/− mice [1]; [4],75 nmoles per total extract
same,20:4n-6 in pancreas,CFTR−/− mice [1]; [4],144^1 nmoles per total extract
same,22:4n-6 in lung,CFTR−/− mice [1]; [4],12 nmoles per total extract
same,22:4n-6 in pancreas,CFTR−/− mice [1]; [4],1.5 nmoles per total extract
same,22:6n-3 in lung,CFTR−/− mice [1]; [4],167 nmoles per total extract
same,22:6n-3 in pancreas,CFTR−/− mice [1]; [4],167 nmoles per total extract
same,20:4n-6 in lung,CFTR−/− mice [1]; [5],60 nmoles per total extract
same,20:4n-6 in pancreas,CFTR−/− mice [1]; [5],67^1 nmoles per total extract and 67 nmoles per total extract
same,22:4n-6 in lung,CFTR−/− mice [1]; [5],4.1 nmoles per total extract
same,22:4n-6 in pancreas,CFTR−/− mice [1]; [5],0.4 nmoles per total extract
same,22:6n-3 in lung,CFTR−/− mice [1]; [5],222 nmoles per total extract
same,22:6n-3 in pancreas,CFTR−/− mice [1]; [5],148 nmoles per total extract
same,DHA level in pancreas,CFTR−/− mice [1],7.9 ± 1.5 nmol/mg
same,Increase of DHA levels in pancreas above wild-type levels,"CFTR−/− mice [1]; CFTR−/− mice, 40 mg DHA/day",3 fold
same,20:4n-6 in lung,wild-type mice; [6],28 nmoles per total extract
same,20:4n-6 in pancreas,wild-type mice; [6],82 nmoles per total extract
same,22:4n-6 in lung,wild-type mice; [6],2 nmoles per total extract
same,22:4n-6 in pancreas,wild-type mice; [6],1.6 nmoles per total extract
same,22:6n-3 in lung,wild-type mice; [6],227 nmoles per total extract
same,22:6n-3 in pancreas,wild-type mice; [6],200 nmoles per total extract
same,AA level in pancreas,CFTR−/− mice [2],4.9 ± 1.8 nmol/mg
"CC/C=C\C/C=C\C/C=C\C/C=C\C/C=C\CCCCCC(=O)O [DPA, docosapentaenoic acid]",20:4n-6 in lung,CFTR−/− mice [1]; [7],5.8 ± 0.9 (17.5) nmoles of fatty acid per mg of protein
same,20:4n-6 in pancreas,CFTR−/− mice [1]; [7],5.1 ± 0.6^1 (13.3) nmoles of fatty acid per mg of protein
same,20:5n-3 in lung,CFTR−/− mice [1]; [7],15.6 ± 1.1 (0.1) nmoles of fatty acid per mg of protein
same,22:6n-3 in lung,CFTR−/− mice [1]; [7],5.5 ± 0.8(4.0) nmoles of fatty acid per mg of protein
same,DHA level in pancreas,CFTR−/− mice [1],3.7 ± 0.4 nmol/mg
same,20:4n-6 in lung,wild-type mice; [8],7.8 ± 0.9 (17.5) nmoles of fatty acid per mg of protein
same,20:4n-6 in pancreas,wild-type mice; [8],6.8 ± 0.6 (13.3) nmoles of fatty acid per mg of protein
same,20:5n-3 in lung,wild-type mice; [8],8.6 ± 0.8 (0.07) nmoles of fatty acid per mg of protein
same,20:5n-3 in pancreas,wild-type mice; [8],7.5 ± 0.8 (0.07) nmoles of fatty acid per mg of protein
same,22:6n-3 in lung,wild-type mice; [8],7.5 ± 0.8 (4.0) nmoles of fatty acid per mg of protein
same,22:6n-3 in pancreas,wild-type mice; [8],2.5 ± 0.4 (1.5) nmoles of fatty acid per mg of protein
same,20:5n-3 in pancreas,CFTR−/− mice [2]; [7],14.6 ± 1.1 (0.1) nmoles of fatty acid per mg of protein
same,22:6n-3 in pancreas,CFTR−/− mice [2]; [7],2.0 ± 0.4(1.5) nmoles of fatty acid per mg of protein
same,AA level in pancreas,CFTR−/− mice [2],5.1 ± 0.6 nmol/mg
"CC/C=C\C/C=C\C/C=C\CCCCCCCC(=O)O [LNA, α-linolenic acid, reference compound]",DHA level in pancreas,CFTR−/− mice [1],0.7 ± 0.07 nmol/mg
same,Change in phospholipid/membrane-bound AA (in words),CFTR−/− mice [1]; CFTR−/− mice,significant decrease; also recorded: four-fold decrease
same,Change in phospholipid/membrane-bound DHA (in words),CFTR−/− mice [1]; CFTR−/− mice,further decrease; also recorded: two-fold decrease
same,Change in phospholipid/membrane-bound AA (in words),CFTR−/− mice [1]; [9],significant decrease
same,Change in phospholipid/membrane-bound DHA (in words),CFTR−/− mice [1]; [9],further decrease
same,Change in phospholipid/membrane-bound AA (in words),wild-type mice; wild-type mice,decrease in membrane-bound AA
same,Change in phospholipid/membrane-bound DHA (in words),wild-type mice; wild-type mice,increase in membrane-bound DHA
same,Change in phospholipid/membrane-bound AA (in words),wild-type mice; [10],decrease in phospholipid-bound AA
same,Change in phospholipid/membrane-bound DHA (in words),wild-type mice; [10],increase in phospholipid-bound DHA
same,AA level in pancreas,CFTR−/− mice [2],5.5 ± 0.8 nmol/mg
